Read-outs that look alike come from different tables or passages of the source.
What was measured:
Factor XIa = Factor XIa (Homo sapiens (Human), UniProt P03951); experiment: Factor XIa inhibition assay (FLINT) utilizing a fluorophore-quencher pair peptide substrate; type: biochemical; conditions: 30 min preincubation, kinetic reads over 30 min, read-out: FXIa Kin Inh IC50
Method in brief: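 FXIa ([…]) preincubated 30 min with compound (11-point 3-fold dilution, top 100 nM, 2% DMSO), then 15 μM quenched FXI Arg146-based peptide added; Tris pH 7.5, CaCl2, BSA, CHAPS. Fluorescence 485/520 nm read kinetically every 5 min over 30 min at RT; IC50 by 4-parameter fit.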

human plasma kallikrein = human plasma kallikrein (Homo sapiens (Human), UniProt P03952); experiment: Kallikrein inhibition assay (FLINT) utilizing a quenched AMC peptide substrate; type: biochemical; conditions: 30 min preincubation, read-out: Kallikrein Kin Inh IC50
Chain of human plasma kallikrein (P03952 391-638): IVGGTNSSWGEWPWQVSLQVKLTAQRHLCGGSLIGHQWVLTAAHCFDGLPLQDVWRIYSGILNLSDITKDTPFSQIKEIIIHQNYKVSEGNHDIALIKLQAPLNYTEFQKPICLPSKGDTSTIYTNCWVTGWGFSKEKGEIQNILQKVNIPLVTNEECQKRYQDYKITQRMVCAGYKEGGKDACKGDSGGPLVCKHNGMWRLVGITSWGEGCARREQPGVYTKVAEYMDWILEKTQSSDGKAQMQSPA
Chain of human plasma kallikrein (P03952 20-390 partner): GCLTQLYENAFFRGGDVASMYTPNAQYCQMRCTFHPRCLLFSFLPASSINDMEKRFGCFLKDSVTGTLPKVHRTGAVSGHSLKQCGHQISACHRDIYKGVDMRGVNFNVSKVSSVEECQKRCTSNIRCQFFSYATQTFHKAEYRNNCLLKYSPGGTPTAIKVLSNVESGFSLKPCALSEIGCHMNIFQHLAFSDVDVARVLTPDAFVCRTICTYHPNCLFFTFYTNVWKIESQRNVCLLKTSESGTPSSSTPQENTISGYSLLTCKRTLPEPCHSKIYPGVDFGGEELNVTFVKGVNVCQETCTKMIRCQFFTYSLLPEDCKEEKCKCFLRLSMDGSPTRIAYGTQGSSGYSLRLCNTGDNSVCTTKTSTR
Method in brief: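 Fluorogenic Z-Gly-Pro-Arg-AMC cleavage (50 μM substrate, 2 nM kallikrein, Tris pH 7.5, CaCl2, BSA, CHAPS, 2% DMSO) read kinetically at 340/440 nm for 30 min after 30-min compound pre-incubation. Compounds in 11-point 3-fold series from 1 μM; percent inhibition fitted to four-parameter equation for IC50.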

[1] = 5Fam-KLTRAETV-K5Tamra substrate 15 μM
[2] = kinetic reads over 30 min, Z-Gly-Pro-Arg-AMC substrate 50 μM
[3] = 5Fam-[…]-K5Tamra substrate 15 μM

Chain of Factor XIa (P03951 388-625): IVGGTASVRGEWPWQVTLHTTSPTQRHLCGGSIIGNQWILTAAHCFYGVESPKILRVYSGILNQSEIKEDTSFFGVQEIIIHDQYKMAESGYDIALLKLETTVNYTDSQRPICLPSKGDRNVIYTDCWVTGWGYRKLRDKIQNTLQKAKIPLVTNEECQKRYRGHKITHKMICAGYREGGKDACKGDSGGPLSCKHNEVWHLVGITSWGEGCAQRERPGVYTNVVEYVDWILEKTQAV
Chain of Factor XIa (P03951 19-387 partner): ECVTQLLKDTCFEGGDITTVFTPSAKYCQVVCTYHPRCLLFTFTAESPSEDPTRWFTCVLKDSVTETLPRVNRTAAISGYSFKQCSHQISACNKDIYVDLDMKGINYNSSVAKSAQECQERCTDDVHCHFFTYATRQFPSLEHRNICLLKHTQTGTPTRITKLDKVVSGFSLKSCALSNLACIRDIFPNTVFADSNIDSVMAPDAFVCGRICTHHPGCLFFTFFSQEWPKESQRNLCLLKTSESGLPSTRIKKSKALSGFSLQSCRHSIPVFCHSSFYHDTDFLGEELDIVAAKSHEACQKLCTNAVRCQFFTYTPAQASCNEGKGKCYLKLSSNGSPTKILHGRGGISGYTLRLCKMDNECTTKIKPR

Row | IC50 (Factor XIa; [1]) [nM] | IC50 (human plasma kallikrein; [2]) [µM] | IC50 (Factor XIa; [3]) [nM] | IC50 (human plasma kallikrein; μM, kinetic reads) [µM] | Structure (SMILES)
1 | 0.6 | 0.0095 | – | – | CO[C@@H]1C[C@@H](c2nc(-c3ccc(N)nc3F)c[nH]2)N2C(=O)C=C(c3c(-n4cnnn4)ccc(Cl)c3F)CC12 (stereo partly drawn) [Example 327, (1R,3S)-3-(4-(6-Amino-2-fluoropyridin-3-yl)-1H-imidazol-2-yl)-7-(3-chloro-2-fluoro-6-(1H-tetrazol-1-yl)phenyl)-1-methoxy-2,3,8,8a-tetrahydroindolizin-5(1H)-one]
2 | 0.4 | 0.0143 | – | – | O=C(O)c1ccc(-c2cnc([C@@H]3CCC4CC(c5c(-n6cc(Cl)nn6)ccc(Cl)c5F)=CC(=O)N43)[nH]2)s1 (stereo partly drawn) [Example 193, 5-(2-((3S)-7-(3-chloro-6-(4-chloro-1H-1,2,3-triazol-1-yl)-2-fluorophenyl)-5-oxo-1,2,3,5,8,8a-hexahydroindolizin-3-yl)-1H-imidazol-4-yl)thiophene-2-carboxylic acid]
3 | – | 0.0177 | 3.1 | – | COC(=O)Nc1ccccc1-c1cnc([C@@H]2CC[C@@H]3CC(c4c(-n5cnnn5)ccc(Cl)c4F)=CC(=O)N32)[nH]1 (relative stereo) [Example 301, Methyl 2-(2-((3S,8aR*)-7-(3-chloro-2-fluoro-6-(1H-tetrazol-1-yl)phenyl)-5-oxo-1,2,3,5,8,8a-hexahydroindolizin-3-yl)-1H-imidazol-4-yl)phenylcarbamate]
4 | – | 0.0524 | 4.9 | – | O=C1C=C(c2c(-n3cnnn3)ccc(Cl)c2F)C[C@H]2CC[C@@H](c3ncc(-c4ccnc(C5(O)CC5)c4Cl)[nH]3)N12 (relative stereo) [Example 155, (3*S,8aR)-3-(5-(3-chloro-2-(1-hydroxycyclopropyl)pyridin-4-yl)-1H-imidazol-2-yl)-7-(3-chloro-2-fluoro-6-(1H-tetrazol-1-yl)phenyl)-2,3,8,8a-tetrahydroindolizin-5(1H)-one]
5 | 1.5 | 0.0019 | – | – | O=C1C=C(c2c(-n3cnnn3)ccc(Cl)c2F)C[C@H]2CC[C@@H](c3nc(F)c(-c4ccnc(-n5cccn5)c4)[nH]3)N12 [Example 88, (3S,8aR)-7-[3-chloro-2-fluoro-6-(tetrazol-1-yl)phenyl]-3-[4 fluoro-5-(2-pyrazol-1-yl-4-pyridyl)-1H-imidazol-2-yl]-2,3,8,8a-tetrahydro-1H-indolizin-5-one]
6 | 1 | 0.0032 | – | – | O=C1Cc2cc(-c3cnc([C@@H]4CCC5CC(c6c(-n7cnnn7)ccc(Cl)c6F)=CC(=O)N54)[nH]3)ccc2N1 (stereo partly drawn) [Example 314, 5-(2-((3S)-7-(3-Chloro-2-fluoro-6-(1H-tetrazol-1-yl)phenyl)-5-oxo-1,2,3,5,8,8a-hexahydroindolizin-3-yl)-1H-imidazol-5-yl)indolin-2-one]
7 | 0.5 | 0.0046 | – | – | Nc1nccc(-c2cnc([C@@H]3CC[C@@H]4CC(c5c(-n6cnnn6)ccc(Cl)c5F)=CC(=O)N43)[nH]2)c1F [Example 126, (3S,8aR)-3-[5-(2-amino-3-fluoro-4-pyridyl)-1H-imidazol-2-yl]-7-[3-chloro-2-fluoro-6-(tetrazol-1-yl)phenyl]-2,3,8,8a-tetrahydro-1H-indolizin-5-one]
8 | 0.5 | 0.0013 | – | – | CC(C)C(=O)Nc1ccccc1-c1c[nH]c([C@@H]2CCC3CC(c4c(-n5cnnn5)ccc(Cl)c4F)=CC(=O)N32)n1 (stereo partly drawn) [Example 329, N-(2-(2-((3S)-7-(3-Chloro-2-fluoro-6-(1H-tetrazol-1-yl)phenyl)-5-oxo-1,2,3,5,8,8a-hexahydroindolizin-3-yl)-1H-imidazol-4-yl)phenyl)isobutyramide]
9 | 31 | 0.371 | – | – | Nc1ccc(-c2cnc([C@@H]3CC[C@@H]4CC(c5c(-n6cnnn6)ccc(Cl)c5F)=CC(=O)N43)[nH]2)c(C(F)(F)F)n1 [Example 167, (3S,8aR)-3-(5-(6-amino-2-(trifluoromethyl)pyridin-3-yl)-1H-imidazol-2-yl)-7-(3-chloro-2-fluoro-6-(1H-tetrazol-1-yl)phenyl)-2,3,8,8a-tetrahydroindolizin-5(1H)-one]
10 | – | 0.0017 | 0.7 | – | CC(C)C(=O)Nc1ccccc1-c1cnc([C@@H]2CC[C@@H]3CC(c4c(-n5cnnn5)ccc(Cl)c4F)=CC(=O)N32)[nH]1 (relative stereo) [Example 305, N-(2-(2-((3S,8aR*)-7-(3-Chloro-2-fluoro-6-(1H-tetrazol-1-yl)phenyl)-5-oxo-1,2,3,5,8,8a-hexahydroindolizin-3-yl)-1H-imidazol-4-yl)phenyl)isobutyramide]
11 | 5.6 | 0.0015 | – | – | NC(=O)c1cccc(-c2cnc([C@@H]3CC[C@@H]4CC(c5c(-n6cnnn6)ccc(Cl)c5F)=CC(=O)N43)[nH]2)c1F [Example 237, 3-(2-((3S,8aR)-7-(3-Chloro-2-fluoro-6-(1H-tetrazol-1-yl)phenyl)-5-oxo-1,2,3,5,8,8a-hexahydroindolizin-3-yl)-1H-imidazol-5-yl)-2-fluorobenzamide]
12 | 1.4 | 0.019 | – | – | O=C1C=C(c2c(-n3cnnn3)ccc(Cl)c2F)CC2CC[C@@H](c3ncc(-c4cn[nH]c4Cl)[nH]3)N12 (stereo partly drawn) [Example 366, (3S)-3-(5-(5-chloro-1H-pyrazol-4-yl)-1H-imidazol-2-yl)-7-(3-chloro-2-fluoro-6-(1H-tetrazol-1-yl)phenyl)-2,3,8,8a-tetrahydroindolizin-5(1H)-one]
13 | – | 0.0259 | 55 | – | O=C1C=C(c2c(-n3cnnn3)ccc(Cl)c2F)CC2CCC(c3nc(-c4cccc(-c5ccn[nH]5)n4)c(F)[nH]3)N12 (single isomer, unassigned) [Example 66, (3S*)-3-(4-(6-(1H-pyrazol-5-yl)pyridin-2-yl)-5-fluoro-1H-imidazol-2-yl)-7-(3-chloro-2-fluoro-6-(1H-tetrazol-1-yl)phenyl)-2,3,8,8a-tetrahydroindolizin-5(1H)-one]
14 | – | 0.0332 | 3.9 | – | [2H]C1([2H])C[C@@H](c2ncc(-c3ccnc(CO)c3F)[nH]2)N2C(=O)C=C(c3c(-n4cnnn4)ccc(Cl)c3F)C([2H])([2H])[C@]21[2H] [Example 33, (3S,8aR)-7-(3-Chloro-2-fluoro-6-(1H-tetrazol-1-yl)phenyl)-3-(5-(3-fluoro-2-(hydroxymethyl)pyridin-4-yl)-1H-imidazol-2-yl)-2,3,8,8a-tetrahydroindolizin-5(1H)-one-1,1,8,8,8a-d5]
15 | 2.3 | 0.0032 | – | – | COC(=O)Nc1cc(-c2cnc([C@@H]3CC[C@@H]4CC(c5c(-n6cnnn6)ccc(Cl)c5F)=CC(=O)N43)[nH]2)ccn1 [Example 99, Methyl (4-(2-((3S,8aR)-7-(3-chloro-2-fluoro-6-(1H-tetrazol-1-yl)phenyl)-5-oxo-1,2,3,5,8,8a-hexahydroindolizin-3-yl)-1H-imidazol-5-yl)pyridin-2-yl)carbamate]
16 | 347 | – | – | 2.4 | O=C1C=C(c2c(-n3cnnn3)ccc(Cl)c2F)CC2CC[C@@H](c3nc(-c4nc[nH]n4)c[nH]3)N12 (stereo partly drawn) [Example 331, (3S)-3-(4-(1H-1,2,4-Triazol-3-yl)-1H-imidazol-2-yl)-7-(3-chloro-2-fluoro-6-(1H-tetrazol-1-yl)phenyl)-2,3,8,8a-tetrahydroindolizin-5(1H)-one]
17 | 1.9 | 0.0013 | – | – | O=C1C=C(c2c(-n3cnnn3)ccc(Cl)c2F)CC2CC[C@@H](c3ncc(-c4ccc5[nH]c(=O)oc5c4)[nH]3)N12 (stereo partly drawn) [Example 309, 6-(2-((3S)-7-(3-Chloro-2-fluoro-6-(1H-tetrazol-1-yl)phenyl)-5-oxo-1,2,3,5,8,8a-hexahydroindolizin-3-yl)-1H-imidazol-4-yl)benzo[d]oxazol-2(3H)-one]
18 | 0.3 | 0.0008 | – | – | CNc1n[nH]c2cc(-c3cnc([C@@H]4CCC5CC(c6c(-n7cnnn7)ccc(Cl)c6F)=CC(=O)N54)[nH]3)ccc12 (stereo partly drawn) [Example 258, (3S)-7-[3-Chloro-2-fluoro-6-(tetrazol-1-yl)phenyl]-3-[5-[3-(methylamino)-1H-indazol-6-yl]-1H-imidazol-2-yl]-2,3,8,8a-tetrahydro-1H-indolizin-5-one]
19 | 9.1 | 0.0069 | – | – | Nc1noc2ccc(-c3cnc([C@@H]4CC[C@@H]5CC(c6c(-n7cnnn7)ccc(Cl)c6F)=CC(=O)N54)[nH]3)cc12 [Example 201, (3S,8aR)-3-(5-(3-aminobenzo[d]isoxazol-5-yl)-1H-imidazol-2-yl)-7-(3-chloro-2-fluoro-6-(1H-tetrazol-1-yl)phenyl)-2,3,8,8a-tetrahydroindolizin-5(1H)-one]
20 | 3.7 | 0.0177 | – | – | O=C1C=C(c2c(-n3cnnn3)ccc(Cl)c2F)C[C@H]2CC[C@@H](c3ncc(-c4ccc5cc[nH]c5c4)[nH]3)N12 [Example 8]
21 | 91.7 | 0.867 | – | – | O=C1C=C(c2c(-n3cnnn3)ccc(Cl)c2F)C[C@H]2CCC(c3ncc(-c4n[nH]cc4Cl)[nH]3)N12 (stereo partly drawn) [Example 4, (8aR)-7-[3-Chloro-2-fluoro-6-(tetrazol-1-yl)phenyl]-3-[5-(4-chloro-1H-pyrazol-3-yl)-1H-imidazol-2-yl]-2,3,8,8a-tetrahydro-1H-indolizin-5-one]
22 | – | 0.0724 | 22.5 | – | [2H][C@@]12CC[C@@H](c3ncc(-c4ccnc(CO)c4F)[nH]3)N1C(=O)C=C(c1c(-n3cnnn3)ccc(Cl)c1F)C2 (relative stereo) [Example 48, (3S*,8aS)-7-(3-chloro-2-fluoro-6-(1H-tetrazol-1-yl)phenyl)-3-(5-(3-fluoro-2-(hydroxymethyl)pyridin-4-yl)-1H-imidazol-2-yl)-2,3,8,8a-tetrahydroindolizin-5(1H)-one-8a-d]

— patent US20230295157A1, “3-(1H-IMIDAZOL-2-YL)-2,3,8,8A-TETRAHYDROINDOLIZIN-5(1H)-ONE DERIVATIVES USEFUL AS FACTOR XIA INHIBITORS” (JANSSEN PHARMACEUTICA NV, priority 2020, published 2023)
